Patent publication US8252935B2, “Piperidinyl and piperazinyl modulators of γ-secretase” (Janssen Pharmaceutica N.V., priority 2007, dated 2012)

Molecular target: γ-secretase (Homo sapiens, UniProt P49768)
Assay: Screening for γ-secretase-modulating activity in SKNBE2 cells carrying APP 695 wild type (assay of Citron et al 1997)
Format: cell-based
Conditions: SKNBE2, @ 1 uM; SKNBE2 cells carrying the APP 695 wild type
Method: Screening was carried out using SKNBE2 cells carrying the APP 695—wild type, grown in DMEM/NUT-mix F12 (HAM) provided by Gibco (cat no. 31330-38) containing 5% Serum/Fe supplemented with 1% non-essential amino acids. Cells were grown to near confluency. The screening was performed using the assay as described in Citron et al (1997) Nature Medicine 3: 67.

inhibition at 1 µM [%]	Compound
58	CC(C)CC(C(=O)O)c1cc(-c2ccc(C(F)(F)F)cc2)cc(C2CCCN(Cc3cc(C(C)(C)C)cc(C(C)(C)C)c3)C2)c1 (centres unmarked) [Example 52, 2-{5-[1-(3,5-Di-tert-butyl-benzyl)-piperidin-3-yl]-4′-trifluoromethyl-biphenyl-3-yl}-4-methyl-pentanoic acid]
57	CC(C)CC(C(=O)O)c1cc(-c2ccc(C(F)(F)F)cc2)cc(C2CCCN(Cc3cc(C(F)(F)F)cc(C(F)(F)F)c3)C2)c1 (centres unmarked) [Example 53, 2-{5-[1-(3,5-Bis-trifluoromethyl-benzyl)-piperidin-3-yl]-4′-trifluoromethyl-biphenyl-3-yl}-4-methyl-pentanoic acid]
80	CC(C)CC(C(=O)O)c1cc(-c2ccc(C(F)(F)F)cc2)cc(C2CCCN(C(c3ccccc3)c3ccccc3)C2)c1 (centres unmarked) [Example 54, 2-[5-(1-Benzhydryl-piperidin-3-yl)-4′-trifluoromethyl-biphenyl-3-yl]-4-methyl-pentanoic acid]
45	CC(C)CC(C(=O)O)c1cc(-c2ccc(C(F)(F)F)cc2)cc(C2CCCN(c3ccc(F)c(F)c3)C2)c1 (centres unmarked) [Example 55, 2-{5-[1-(3,4-Difluoro-phenyl)-piperidin-3-yl]-4′-trifluoromethyl-biphenyl-3-yl}-4-methyl-pentanoic acid]
40	CC(C)CC(C(=O)O)c1cc(-c2ccc(C(F)(F)F)cc2)cc(C2CCCN(c3ccccc3)C2)c1 (centres unmarked) [Example 58, 4-Methyl-2-[5-(1-phenyl-piperidin-3-yl)-4′-trifluoromethyl-biphenyl-3-yl]-pentanoic acid]
37	CC(C)CC(C(=O)O)c1cc(-c2ccc(C(F)(F)F)cc2)cc(C2CCCN(c3ccc(C(F)(F)F)cc3)C2)c1 (centres unmarked) [Example 59, 4-Methyl-2-{4′-trifluoromethyl-5-[1-(4-trifluoromethyl-phenyl)-piperidin-3-yl]-biphenyl-3-yl}-pentanoic acid]
52	COCCCC1CCCCN1c1cc(-c2ccc(C(F)(F)F)cc2)cc([C@@H](CC(C)C)C(=O)O)c1 (stereo partly drawn) [Example 60, (R)-2-{5-[2-(3-Methoxy-propyl)-piperidin-1-yl]-4′-trifluoromethyl-biphenyl-3-yl}-4-methyl-pentanoic acid]
5	CC(C)CCN1CCCC(c2cc(-c3ccc(C(F)(F)F)cc3)cc(C(CC(C)C)C(=O)O)c2)C1 (centres unmarked) [Example 62, 4-Methyl-2-{5-[1-(3-methyl-butyl)-piperidin-3-yl]-4′-trifluoromethyl-biphenyl-3-yl}-pentanoic acid]
0	CCN1CCCC(c2cc(-c3ccc(C(F)(F)F)cc3)cc(C(CC(C)C)C(=O)O)c2)C1 (centres unmarked) [Example 66, 2-[5-(1-Ethyl-piperidin-3-yl)-4′-trifluoromethyl-biphenyl-3-yl]-4-methyl-pentanoic acid]
49	CC(C)CC(C(=O)O)c1cc(-c2ccc(C(F)(F)F)cc2)cc(C2CCCN(Cc3ccccc3)C2)c1 (centres unmarked) [Example 67, 2-[5-(1-Benzyl-piperidin-3-yl)-4′-trifluoromethyl-biphenyl-3-yl]-4-methyl-pentanoic acid]
2	CC(C)CC(C(=O)O)c1cc(-c2ccc(C(F)(F)F)cc2)cc(C2CCNCC2)c1 (centres unmarked) [Example 68, 4-Methyl-2-(5-piperidin-4-yl-4′-trifluoromethyl-biphenyl-3-yl)-pentanoic acid]
8	CC(C)/C=C/CN1CCC(c2cc(-c3ccc(C(F)(F)F)cc3)cc(C(CC(C)C)C(=O)O)c2)CC1 (centres unmarked) [Example 69, 4-Methyl-2-{5-[1-(4-methyl-pent-2-enyl)-piperidin-4-yl]-4′-trifluoromethyl-biphenyl-3-yl}-pentanoic acid]
47	CC(C)CC(C(=O)O)c1cc(-c2ccc(C(F)(F)F)cc2)cc(C2CCN(Cc3cc(F)cc(C(F)(F)F)c3)CC2)c1 (centres unmarked) [Example 70, 2-{5-[1-(3-Fluoro-5-trifluoromethyl-benzyl)-piperidin-4-yl]-4′-trifluoromethyl-biphenyl-3-yl}-4-methyl-pentanoic acid]
51	CC(C)CCC(c1ccc(C(F)(F)F)cc1)N1CCC(c2cc(-c3ccc(C(F)(F)F)cc3)cc(C(CC(C)C)C(=O)O)c2)CC1 (centres unmarked) [Example 71, 4-Methyl-2-(5-{1-[4-methyl-1-(4-trifluoromethyl-phenyl)-pentyl]-piperidin-4-yl}-4′-trifluoromethyl-biphenyl-3-yl)-pentanoic acid]
6	CC(C)CC(C(=O)O)c1cc(-c2ccc(C(F)(F)F)cc2)cc(C2CCN(c3ccc(C(F)(F)F)cc3)CC2)c1 (centres unmarked) [Example 72, 4-Methyl-2-{4′-trifluoromethyl-5-[1-(4-trifluoromethyl-phenyl)-piperidin-4-yl]-biphenyl-3-yl}-pentanoic acid]
9	CC(C)CC(C(=O)O)c1cc(-c2ccc(C(F)(F)F)cc2)cc(C2CC[N+](C)(C)CC2)c1 (centres unmarked) [Example 73, 2-[5-(1,1-Dimethyl-piperidin-4-yl)-4′-trifluoromethyl-biphenyl-3-yl]-4-methyl-pentanoic acid]
4	CC(C)CC(C(=O)O)c1cc(-c2ccc(C(F)(F)F)cc2)cc(C2CCN(C3CCCCC3)CC2)c1 (centres unmarked) [Example 74, 2-[5-(1-Cyclohexyl-piperidin-4-yl)-4′-trifluoromethyl-biphenyl-3-yl]-4-methyl-pentanoic acid]
46	CC(C)CC(C(=O)O)c1cc(-c2ccc(C(F)(F)F)cc2)cc(C2CCN(Cc3cc(F)cc(F)c3)CC2)c1 (centres unmarked) [Example 75, 2-{5-[1-(3,5-Difluoro-benzyl)-piperidin-4-yl]-4′-trifluoromethyl-biphenyl-3-yl}-4-methyl-pentanoic acid]
11	CC(C)CCN1CCC(c2cc(-c3ccc(C(F)(F)F)cc3)cc(C(CC(C)C)C(=O)O)c2)CC1 (centres unmarked) [Example 76, 4-Methyl-2-{5-[1-(3-methyl-butyl)-piperidin-4-yl]-4′-trifluoromethyl-biphenyl-3-yl}-pentanoic acid]
36	CC(C)CCCN1CCC(c2cc(-c3ccc(C(F)(F)F)cc3)cc(C(CC(C)C)C(=O)O)c2)CC1 (centres unmarked) [Example 77, 4-Methyl-2-{5-[1-(4-methyl-pentyl)-piperidin-4-yl]-4′-trifluoromethyl-biphenyl-3-yl}-pentanoic acid]
35	CC(C)CC(C(=O)O)c1cc(-c2ccc(C(F)(F)F)cc2)cc(C2CCN(Cc3ccc(C(F)(F)F)cc3)CC2)c1 (centres unmarked) [Example 78, 4-Methyl-2-{4′-trifluoromethyl-5-[1-(4-trifluoromethyl-benzyl)-piperidin-4-yl]-biphenyl-3-yl}-pentanoic acid]
28	CC(C)CC(C(=O)O)c1cc(-c2ccc(C(F)(F)F)cc2)cc(N2CCN(c3ccc(F)c(F)c3)CC2)c1 (centres unmarked) [Example 79, 2-{5-[4-(3,4-Difluoro-phenyl)-piperazin-1-yl]-4′-trifluoromethyl-biphenyl-3-yl}-4-methyl-pentanoic acid]
35	CC(C)CC(C(=O)O)c1cc(-c2ccc(C(F)(F)F)cc2)cc(N2CCN(c3cccc(C(F)(F)F)c3)CC2)c1 (centres unmarked) [Example 80, 4-Methyl-2-{4′-trifluoromethyl-5-[4-(3-trifluoromethyl-phenyl)-piperazin-1-yl]-biphenyl-3-yl}-pentanoic acid]
63	CC(C)CC(C(=O)O)c1cc(-c2ccc(C(F)(F)F)cc2)cc(N2CCN(c3ccc(C(F)(F)F)cc3)CC2)c1 (centres unmarked) [Example 81, 4-Methyl-2-{4′-trifluoromethyl-5-[4-(4-trifluoromethyl-phenyl)-piperazin-1-yl]-biphenyl-3-yl}-pentanoic acid]
5	CC(C)CC(C(=O)O)c1cc(-c2ccc(C(F)(F)F)cc2)cc(N2CCNCC2)c1 (centres unmarked) [Example 82, 4-Methyl-2-(5-piperazin-1-yl-4′-trifluoromethyl-biphenyl-3-yl)-pentanoic acid]
44	Cc1ccccc1CC1CCCCN1c1cc(-c2ccc(C(F)(F)F)cc2)cc(C(CC(C)C)C(=O)O)c1 (centres unmarked) [Example 83, 4-Methyl-2-{5-[2-(2-methyl-benzyl)-piperidin-1-yl]-4′-trifluoromethyl-biphenyl-3-yl}-pentanoic acid]
